Measurements: patent US12721349B2, “Method for promoting bacterial cell wall degradation” (KABUSHIKI KAISHA YAKULT HONSHA, priority 2019, dated 2026)
Values after ≈ are worked out from the molar mass of the structure shown.

What was measured:
[1] = tested on: Lactobacillus casei YIT 9029; assay: Cell wall degradation of YIT 9029 by lysozyme and mutanolysin (recombinant) with added saccharide, turbidity OD615; assay type: cell-based; details: saccharide 0.5 M, 37° C.; for cell wall degradation-promoting effect / cell wall degradation-promoting effect after 1 hour of the reaction: FIG. 4; for cell wall degradation rate compared with the reaction in which no saccharide was added: up to 24 hours, FIG. 1
Protocol: Lactobacillus casei YIT 9029 (hereinafter, referred to as YIT 9029) was used. Thirty microliters of the pre-cultured bacterial solution of about 2×10^9 CFU/mL cultured in the MRS Broth was inoculated in 30 mL of the MRS Broth prepared in the above (2) and then cultured at 37° C. for 24 hours. […] The bacteria were suspended in a 5 mM Tris-maleate buffer solution (manufactured by Sigma-Aldrich Co.) (pH 6.4) of the same volume as that of the original bacterial solution, and 100 μg of lysozyme from chicken egg white lyophilized powder (manufactured by Sigma-Aldrich Co., hereinafter, referred to as lysozyme), which is egg white lysozyme, and 100 U of mutanolysin (recombinant) (manufactured by A&A Biotechnology) were added per 1 mL of the suspension. The reaction solution was treated at 37° C. for 24 hours. In addition, in order to examine the influence of the addition of a saccharide on cell wall degradation reaction, the same reaction was performed using a Tris-maleate buffer solution containing D-glucose or L-rhamnose at a final concentration of 0.5 M instead of the Tris-maleate buffer solution. Each reaction was performed in triplicate. The turbidity (OD615) of the bacterial suspension at 615 nm (maximal absorption wavelength; measurement wavelength range: 575-660 nm) was measured over time using a spectrophotometer PiCOSCOPE PAS-110 (manufactured by Ushio Inc.), and the degradation rate was calculated by the following equation (1). The degradation rate was shown by the mean±standard deviation of triplicate. Degradation rate=1−(OD615 after reaction/OD615 before reaction) (1). (6) Result […] Each reaction was performed in triplicate. The same reaction as in Example 1 was performed except that D-arabinose, L-arabinose, D-lyxose, L-lyxose, D-xylose, L-xylose, D-ribose, L-ribose, D-fucose, L-fucose, D-mannose, L-mannose, D-galactose, or D-fructose was added as the saccharide, and the cell wall degradation-promoting effect of each saccharide was examined. Each reaction was performed in triplicate. […] Each reaction was performed in triplicate.

[2] = tested on: Lactobacillus casei YIT 9029; assay: Cell wall degradation of YIT 9029 by mutanolysin (recombinant) alone with added saccharide, turbidity OD615; assay type: cell-based; details: 37° C.; for degradation-promoting effect, mutanolysin alone: 0.5, 1.0 or 1.5 M, FIG. 5B
Protocol: The bacteria were suspended in a 5 mM Tris-maleate buffer solution (manufactured by Sigma-Aldrich Co.) (pH 6.4) of the same volume as that of the original bacterial solution, and 100 μg of lysozyme from chicken egg white lyophilized powder (manufactured by Sigma-Aldrich Co., hereinafter, referred to as lysozyme), which is egg white lysozyme, and 100 U of mutanolysin (recombinant) (manufactured by A&A Biotechnology) were added per 1 mL of the suspension. The reaction solution was treated at 37° C. for 24 hours. In addition, in order to examine the influence of the addition of a saccharide on cell wall degradation reaction, the same reaction was performed using a Tris-maleate buffer solution containing D-glucose or L-rhamnose at a final concentration of 0.5 M instead of the Tris-maleate buffer solution. Each reaction was performed in triplicate. The turbidity (OD615) of the bacterial suspension at 615 nm (maximal absorption wavelength; measurement wavelength range: 575-660 nm) was measured over time using a spectrophotometer PiCOSCOPE PAS-110 (manufactured by Ushio Inc.), and the degradation rate was calculated by the following equation (1). The degradation rate was shown by the mean±standard deviation of triplicate. Degradation rate=1−(OD615 after reaction/OD615 before reaction) (1). (6) Result It was expected from Examples 1 to 4 that a saccharide such as D-arabinose increases the activity of mutanolysin to promote the degradation of cell wall. However, since a possibility that the saccharide increases the activity of lysozyme that has been added together cannot be excluded, the degradation rate when YIT 9029 was treated with mutanolysin or lysozyme alone was examined using some saccharides. […] Each reaction was performed without replicates. […] Each reaction was performed in triplicate.

[3] = tested on: Lactobacillus casei YIT 9029; assay: Cell wall degradation of YIT 9029 by lysozyme alone with added saccharide, turbidity OD615; assay type: cell-based; details: 1.5 M, 37° C., FIG. 5A
Protocol: The bacteria were suspended in a 5 mM Tris-maleate buffer solution (manufactured by Sigma-Aldrich Co.) (pH 6.4) of the same volume as that of the original bacterial solution, and 100 μg of lysozyme from chicken egg white lyophilized powder (manufactured by Sigma-Aldrich Co., hereinafter, referred to as lysozyme), which is egg white lysozyme, and 100 U of mutanolysin (recombinant) (manufactured by A&A Biotechnology) were added per 1 mL of the suspension. The reaction solution was treated at 37° C. for 24 hours. In addition, in order to examine the influence of the addition of a saccharide on cell wall degradation reaction, the same reaction was performed using a Tris-maleate buffer solution containing D-glucose or L-rhamnose at a final concentration of 0.5 M instead of the Tris-maleate buffer solution. Each reaction was performed in triplicate. The turbidity (OD615) of the bacterial suspension at 615 nm (maximal absorption wavelength; measurement wavelength range: 575-660 nm) was measured over time using a spectrophotometer PiCOSCOPE PAS-110 (manufactured by Ushio Inc.), and the degradation rate was calculated by the following equation (1). The degradation rate was shown by the mean±standard deviation of triplicate. Degradation rate=1−(OD615 after reaction/OD615 before reaction) (1). […]

[4] = Solubility in water at room temperature; assay type: physicochemical; details: read-out: upper limit of the solubility in water
[5] = tested on: Lactobacillus casei YIT 9029; assay: Cell wall degradation of YIT 9029 by lysozyme and mutanolysin (recombinant) with added saccharide, turbidity OD615; assay type: cell-based; details: for difference between the promotion effects of the D-form and the L-form: 0.1 M to 1.5 M; for difference between the promotion effects of the D-form and the L-form / concentration dependence of the degradation rate: FIG. 6; for concentration dependence of the degradation rate: concentration range of 0.1 M and 1.0 M
[6] = tested on: Lactobacillus casei YIT 9029; assay: Cell wall degradation of YIT 9029 by lysozyme and mutanolysin from Streptomyces globisporus ATCC 21553 with added saccharide, turbidity OD615; assay type: cell-based; details: 1.5 M, 37° C. or 50° C., mutanolysin from Streptomyces globisporus ATCC 21553, FIG. 3A
Protocol: The reaction solution was treated at 37° C. for 24 hours. In addition, in order to examine the influence of the addition of a saccharide on cell wall degradation reaction, the same […] buffer solution. Each reaction was performed in triplicate. The turbidity (OD615) of the bacterial suspension at 615 nm (maximal absorption wavelength; measurement wavelength range: 575-660 nm) was measured over time using a spectrophotometer PiCOSCOPE PAS-110 (manufactured by Ushio Inc.), and the degradation rate was calculated by the following equation (1). The degradation rate was shown by the mean±standard deviation of triplicate. Degradation rate=1−(OD615 after reaction/OD615 before reaction) (1). (6) Result […] Each reaction was performed without replicates.

O=C[C@@H](O)[C@H](O)[C@H](O)CO [D-arabinose]
degradation rate after 1 hour of the reaction relative to the reaction in which no saccharide was added [1]: about 4 times
cell wall degradation-promoting effect [1]: showed the cell wall degradation-promoting effect
promotion of degradation, mutanolysin alone ([2]; 1.5 M, FIG. 5A): promoted the degradation
promotion of degradation, lysozyme alone [3]: did not show significant promotion of degradation
solubility [4]: ~1500 mM (≈ 225 mg/mL)
difference between the promotion effects of the D-form and the L-form ([5]; 37° C. or 50° C.): no difference
promotion of degradation, mutanolysin and lysozyme in combination ([5]; 1.5 M, 37° C., FIG. 5A): promoted the degradation
degradation rate after 1 hour ([5]; 1.5 M, 50° C., FIG. 7): 93%
concentration dependence of the degradation rate [5]: concentration dependence was observed
degradation rate at 50° C. compared with 37° C. ([5]; reaction for a short time, FIG. 7): higher

O=C(CO)[C@@H](O)[C@H](O)[C@H](O)CO [D-fructose]
cell wall degradation-promoting effect after 1 hour of the reaction [1]: showed the cell wall degradation-promoting effect

O=C[C@H](O)[C@@H](O)[C@H](O)[C@H](O)CO [D-glucose, reference compound]
cell wall degradation rate compared with the reaction in which no saccharide was added [1]: decrease in cell wall degradation rate

O=C[C@@H](O)[C@@H](O)[C@H](O)CO [D-lyxose]
cell wall degradation-promoting effect [1]: showed the cell wall degradation-promoting effect

O=C[C@H](O)[C@H](O)[C@H](O)CO [D-ribose]
cell wall degradation-promoting effect [1]: showed the cell wall degradation-promoting effect

O=C[C@H](O)[C@@H](O)[C@H](O)CO [D-xylose]
cell wall degradation-promoting effect after 1 hour of the reaction [1]: showed the cell wall degradation-promoting effect

O=C[C@H](O)[C@@H](O)[C@@H](O)CO [L-arabinose]
degradation rate after 1 hour of the reaction relative to the reaction in which no saccharide was added [1]: about 4 times
cell wall degradation-promoting effect [1]: showed the cell wall degradation-promoting effect
degradation-promoting effect, mutanolysin alone [2]: showed the degradation-promoting effect
solubility [4]: ~1500 mM (≈ 225 mg/mL)
difference between the promotion effects of the D-form and the L-form ([5]; 37° C. or 50° C.): no difference
concentration dependence of the degradation rate [5]: concentration dependence was observed

C[C@H](O)[C@@H](O)[C@@H](O)[C@H](O)C=O [L-fucose]
degradation rate after 1 hour of the reaction relative to the reaction in which no saccharide was added [1]: about 3 times
cell wall degradation-promoting effect [1]: showed the cell wall degradation-promoting effect
degradation-promoting effect, mutanolysin alone [2]: showed the degradation-promoting effect

O=C[C@H](O)[C@H](O)[C@@H](O)CO [L-lyxose]
cell wall degradation-promoting effect [1]: showed the cell wall degradation-promoting effect

O=C[C@H](O)[C@H](O)[C@@H](O)[C@@H](O)CO [L-mannose]
cell wall degradation-promoting effect [1]: showed the cell wall degradation-promoting effect
degradation-promoting effect, mutanolysin alone [2]: showed the degradation-promoting effect

C[C@H](O)[C@H](O)[C@@H](O)[C@@H](O)C=O [L-rhamnose]
cell wall degradation rate compared with the reaction in which no saccharide was added [1]: increase in cell wall degradation rate
degradation-promoting effect, mutanolysin alone [2]: showed the degradation-promoting effect
cell wall degradation rate compared with the reaction in which no saccharide was added [6]: increase in cell wall degradation rate
degradation rate with increasing concentrations of L-rhamnose ([5]; 0.5, 1.0, 1.5 M, 37° C. or 50° C., FIG. 2): increased with increasing concentrations
degradation rate after 24 hours of the reaction ([5]; 1.5 M, 37° C.): 0.97
cell wall degradation rate compared with the reaction in which no saccharide was added ([5]; 1.5 M, 37° C. or 50° C., mutanolysin (recombinant), FIG. 3B): increase in cell wall degradation rate
degradation rate after 5 hours of the reaction ([5]; 1.5 M, 37° C., rate = 1-(OD615 after/OD615 before)): 0.83
degradation rate after 24 hours of the reaction ([5]; 1.5 M, 50° C.): 0.87
degradation rate after 1 hour of the reaction ([5]; 1.5 M, 50° C., rate = 1-(OD615 after/OD615 before)): 0.69

O=C[C@@H](O)[C@@H](O)[C@@H](O)CO [L-ribose]
cell wall degradation-promoting effect [1]: showed the cell wall degradation-promoting effect

O=C[C@@H](O)[C@H](O)[C@@H](O)CO [L-xylose]
cell wall degradation-promoting effect [1]: showed the cell wall degradation-promoting effect
